In patent publication US20180354921A1, “SUBSTITUTED OXADIAZOLES FOR COMBATING PHYTOPATHOGENIC FUNGI” (BASF SE, priority 2015, published 2018):

melting point: 198 °C
Compound: O=C(Cc1ccccc1)Nc1ccc(-c2noc(C(F)(F)F)n2)cc1 [Ex-1, 2-phenyl-N-[4-[5-(trifluoromethyl)-1,2,4-oxadiazol-3-yl]phenyl]acetamide]
